# Test results from ChEMBL document CHEMBL1201862, “PubChem BioAssay data set” (2004).
# The source made the active and inactive calls. For most assays here, no stated cut-off is given here; in the data, actives have a measured EC50 and inactives only a lower limit.
# Legend:
# [1] = molecular target: T1, Heat shock factor protein 1 (Mus musculus, UniProt P38532); test: HSF1 potentiators in luciferase reporter cells, confirmation, cell-based, NIH3T3, luminescence, dose retest (AID 435004); format: functional;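 further: stress induced by proteasome inhibitor MG132 added 30 min after compound; luciferase reporter driven by HSF1 response element in NIH3T3 cells; actives raise luminescence as potentiators of the MG132 stress response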
# T1 sequence (P38532 whole entry): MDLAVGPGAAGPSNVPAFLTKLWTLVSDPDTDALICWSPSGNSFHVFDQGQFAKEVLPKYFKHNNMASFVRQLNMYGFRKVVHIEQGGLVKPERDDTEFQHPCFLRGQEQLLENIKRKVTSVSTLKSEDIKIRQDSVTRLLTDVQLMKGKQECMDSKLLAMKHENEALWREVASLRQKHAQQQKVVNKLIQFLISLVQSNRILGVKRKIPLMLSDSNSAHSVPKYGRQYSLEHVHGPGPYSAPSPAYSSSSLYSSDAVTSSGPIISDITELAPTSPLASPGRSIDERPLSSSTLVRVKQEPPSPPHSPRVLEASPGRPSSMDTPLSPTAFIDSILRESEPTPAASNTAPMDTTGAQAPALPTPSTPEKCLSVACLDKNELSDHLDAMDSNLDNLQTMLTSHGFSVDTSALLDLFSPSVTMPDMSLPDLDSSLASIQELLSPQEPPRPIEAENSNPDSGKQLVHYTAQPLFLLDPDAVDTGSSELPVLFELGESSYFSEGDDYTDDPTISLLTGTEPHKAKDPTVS
# cells [2] = format: functional, cell-based
# cells [3] = format: functional, cell-based; remark: listed apart in the source
# [4] = molecular target: Luciferin 4-monooxygenase (Photinus pyralis, UniProt P08659); test: firefly luciferase enzyme inhibitors, dose response, biochemical, luminescence (AID 1891)
# Sequence of Luciferin 4-monooxygenase (P08659 whole entry): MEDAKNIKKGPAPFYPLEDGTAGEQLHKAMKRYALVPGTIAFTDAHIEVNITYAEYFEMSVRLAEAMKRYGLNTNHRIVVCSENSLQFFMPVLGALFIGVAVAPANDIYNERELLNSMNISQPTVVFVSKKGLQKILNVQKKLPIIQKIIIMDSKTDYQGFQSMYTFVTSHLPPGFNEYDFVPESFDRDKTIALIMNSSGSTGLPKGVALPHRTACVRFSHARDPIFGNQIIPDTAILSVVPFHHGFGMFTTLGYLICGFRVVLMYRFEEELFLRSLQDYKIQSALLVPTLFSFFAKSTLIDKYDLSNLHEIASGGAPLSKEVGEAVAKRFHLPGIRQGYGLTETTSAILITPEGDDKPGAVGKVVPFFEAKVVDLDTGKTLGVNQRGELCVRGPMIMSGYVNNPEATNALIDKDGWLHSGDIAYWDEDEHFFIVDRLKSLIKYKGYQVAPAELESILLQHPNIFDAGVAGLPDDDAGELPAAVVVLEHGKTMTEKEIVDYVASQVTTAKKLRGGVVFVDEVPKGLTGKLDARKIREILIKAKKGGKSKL
# [5] = Luminescence Cell-Based Dose Confirmation HTS to Identify Inhibitors of Platelet Dense Granule Release. [Related pubchem assays: 1663 (Primary HTS), 1678 (Summary of Project)]; format: functional
# [6] = molecular target: T2, Corticotropin-releasing factor receptor 2/Corticotropin-releasing factor-binding protein (Homo sapiens, UniProt P24387+Q13324); test: Dose Response confirmation of uHTS hits for small molecule antagonists of the CRF-binding protein and CRF-R2 receptor complex.; format: functional; conditions: read-out: IC50_Mean
# T2 sequence (Q13324 whole entry): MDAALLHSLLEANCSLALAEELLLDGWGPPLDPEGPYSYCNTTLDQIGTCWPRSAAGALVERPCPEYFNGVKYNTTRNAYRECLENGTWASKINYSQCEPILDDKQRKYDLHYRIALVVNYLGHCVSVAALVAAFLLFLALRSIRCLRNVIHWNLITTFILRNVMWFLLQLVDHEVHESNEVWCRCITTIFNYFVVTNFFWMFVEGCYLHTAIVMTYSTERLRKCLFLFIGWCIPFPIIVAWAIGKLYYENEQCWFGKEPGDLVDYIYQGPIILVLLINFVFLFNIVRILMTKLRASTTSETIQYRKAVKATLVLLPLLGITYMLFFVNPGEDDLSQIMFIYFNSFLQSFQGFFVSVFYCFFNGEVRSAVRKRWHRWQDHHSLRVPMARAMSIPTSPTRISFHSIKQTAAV
# T2 sequence (P24387 whole entry): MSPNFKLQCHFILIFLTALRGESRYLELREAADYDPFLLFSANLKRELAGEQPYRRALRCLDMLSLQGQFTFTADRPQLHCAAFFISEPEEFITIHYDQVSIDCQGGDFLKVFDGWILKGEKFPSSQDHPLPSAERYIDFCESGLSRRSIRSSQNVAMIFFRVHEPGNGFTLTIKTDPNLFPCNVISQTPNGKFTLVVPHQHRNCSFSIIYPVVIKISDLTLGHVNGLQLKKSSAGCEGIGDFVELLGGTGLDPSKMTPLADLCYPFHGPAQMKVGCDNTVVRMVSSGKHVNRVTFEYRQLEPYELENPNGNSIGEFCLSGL
# [7] = molecular target: T2, Corticotropin-releasing factor receptor 2/Corticotropin-releasing factor-binding protein; test: activators of CRF receptor 2 with binding protein – uHTS hits, confirmation (AID 602473); format: functional; conditions: read-out: EC50_Mean
# [8] = system: Streptococcus sp. 'group A'; test: growth inhibition of control SK(-) GAS strain, dose response, counter-screen for streptokinase expression inhibitor project, luminescence, kanamycin, BacTiterGlo, confirmation (AID 1900); format: functional, organism-based
# Streptokinase A = molecular target: T3, Streptokinase A (Streptococcus pyogenes serotype M1, UniProt P10520); test: S. pyogenes streptokinase expression inhibitors, potency, dose response, plasminogen activation absorbance, OD405 (AID 1914); format: functional, Streptococcus pyogenes M1 GAS;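 further: secreted streptokinase activity via plasminogen activation per viability signal from cell pellet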
# T3 sequence (P10520 whole entry): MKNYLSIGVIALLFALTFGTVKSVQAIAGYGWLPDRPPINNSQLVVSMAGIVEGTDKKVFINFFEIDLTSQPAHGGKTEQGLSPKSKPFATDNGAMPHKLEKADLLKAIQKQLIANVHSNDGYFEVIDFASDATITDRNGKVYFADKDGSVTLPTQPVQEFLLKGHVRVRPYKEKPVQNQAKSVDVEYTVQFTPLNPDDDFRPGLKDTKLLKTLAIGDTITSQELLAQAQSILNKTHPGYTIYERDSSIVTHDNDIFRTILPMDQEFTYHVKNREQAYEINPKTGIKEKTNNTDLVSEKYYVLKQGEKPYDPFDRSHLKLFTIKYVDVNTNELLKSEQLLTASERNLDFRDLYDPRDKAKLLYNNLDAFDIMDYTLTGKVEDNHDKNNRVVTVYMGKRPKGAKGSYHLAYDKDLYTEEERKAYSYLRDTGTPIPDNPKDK
# Streptococcus = test: Group A Streptococcus viability loss, dose response, counter-screen for streptokinase expression inhibitor project, luminescence, BacTiterGlo (AID 1915); format: functional, organism-based;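 further: potency for reduction of bacterial viability or growth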
# [9] = Shn3 3'UTR reporter inhibitors, dose response, cell-based, Clone20 osteoblasts, firefly luciferase, cherry-picked (AID 624132); format: functional;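 further: firefly luciferase luminescence from reporter carrying the Shn3 3'UTR in osteoblasts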
# [10] = control 3'UTR Renilla luciferase suppression, dose response, counter-screen for Shn3 inhibitor project, cell-based, Clone20-Shn3RL, cherry-picked (AID 624133); format: functional
# [11] = inhibitors of firefly luciferase expression or activity, dose response, H4 neuroglioma cells, luminescence (AID 1990); format: functional, cell-based
# [12] = Luminescence Cell-Based Dose Response HTS to Identify Inhibitors of 5'UTR Stem-Loop Driven Prion Protein mRNA Translation in H4 Neuroglioblastoma Cells. [Related pubchem assays: 1827 (Project Summary), 1813 (Primary HTS)]; format: functional
# [13] = inhibitors of SNCA 5'UTR-driven reporter translation, confirmation, H4 neuroglioma cells, luminescence (AID 1988); format: functional, cell-based
smiles,measurement,setting,value
Cc1ccc2cccc(NC(=O)C(F)(F)F)c2n1,EC50,[1],> 260 µM (inactive)
CC(C)COc1ccc(C(=O)Nc2ccc([N+](=O)[O-])cc2)cc1,EC50,cells [2],> 350 µM (not active)
same,EC50,cells [3],> 350 µM (not active)
CCOc1ccc(NC(=O)CSc2nnc(Cn3cnc4ccccc43)n2C)cc1,EC50,cells [2],> 350 µM (not active)
same,EC50,cells [3],> 350 µM (not active)
CCOC(=O)C1=C(CNCc2ccccc2Cl)NC(=O)NC1c1cccc([N+](=O)[O-])c1 (stereo unspecified),EC50,[4],> 112 µM (not active)
same,EC50,[5],> 112 µM (not active)
Cc1ccc(N(C(=O)Cn2nnc(-c3ccccc3)n2)C(C(=O)NC2CCCCC2)c2ccccn2)cc1C (stereo unspecified),IC50,[6],> 47.1 µM (inactive)
same,EC50,[7],> 53 µM (inactive)
Cc1ccccc1NS(=O)(=O)c1ccc(C)c(C(=O)N2CCOCC2)c1,EC50,[8],> 150 µM (not active)
same,EC50,Streptokinase A,> 150 µM (not active)
same,EC50,Streptococcus,> 150 µM (not active)
same,IC50,[6],> 47.1 µM (inactive)
same,EC50,[7],> 53 µM (inactive)
C/C(=N\NC(=O)c1ccc2c(c1)OCCO2)c1ccccc1,EC50,[4],12.8 µM (active)
same,EC50,[5],2.98 µM (active)
CN1CC(C(=O)c2ccc(F)cc2)C(c2c(F)cccc2Cl)C1 (stereo unspecified),EC50,[1],> 260 µM (inactive)
Cc1ccc2c(c1)Oc1ccccc1N=C2,IC50,[6],> 47.1 µM (inactive)
same,EC50,[7],> 53 µM (inactive)
CCOc1ccc(N(CC(=O)NC2CCC(C)CC2)S(=O)(=O)c2c(C)noc2C)cc1 (stereo unspecified),IC50,[6],> 47.1 µM (inactive)
same,EC50,[7],> 53 µM (inactive)
NC(=O)c1cc(N2C(=O)C=CC2=O)ccc1Cl,AC50,[9],11.3 µM (active)
same,AC50,[10],25.5 µM (active)
Cc1nnc(N2CCC(C(=O)NC3CCC(C)CC3)CC2)c2nn(-c3ccc(Cl)cc3)c(C)c12 (stereo unspecified),EC50,[11],14.7 µM (active)
same,EC50,[12],> 120 µM (not active)
same,EC50,[13],> 120 µM (not active)
COC(=O)C(NC(=O)c1c(C)nn(C)c1Cl)c1ccccc1 (stereo unspecified),EC50,cells [2],> 350 µM (not active)
same,EC50,cells [3],> 350 µM (not active)
CCOC(=O)c1c(C)[nH]c(C)c1S(=O)(=O)N1CCN(c2ccc([N+](=O)[O-])cc2)CC1,EC50,[11],23 µM (active)
same,EC50,[12],> 120 µM (not active)
same,EC50,[13],> 120 µM (not active)
CCCc1nc2oc3c(=O)nc[nH]c3c2c2c1CCCC2,EC50,[4],> 112 µM (not active)
Cn1nnc(NC(=O)c2cccc([N+](=O)[O-])c2)n1,EC50,cells [2],> 350 µM (not active)
same,EC50,cells [3],> 350 µM (not active)
CCc1nc2scc(-c3cccs3)c2c(=O)o1,EC50,[4],> 112 µM (not active)
same,EC50,[5],> 112 µM (not active)
O=[N+]([O-])c1ccc(N2CCN(S(=O)(=O)c3ccccc3)CC2)cc1NCC1CCCO1 (stereo unspecified),EC50,[11],18.3 µM (active)
same,EC50,[12],40.6 µM (active)
same,EC50,[13],19.2 µM (active)
CC(NC(=O)CCc1nc2cc(S(=O)(=O)N3CCOCC3)ccc2n1C)c1ccc(S(N)(=O)=O)cc1 (stereo unspecified),EC50,[4],> 112 µM (not active)
same,EC50,[5],41.7 µM (active)
